Read-outs that look alike come from different tables or passages of the source.
Experiments:
Test in all cases: selectivity profiling in a panel of 340 wild-type kinases (Reaction Biology Europe)
Type in all cases: binding
340 wild-type kinases [1] = target: T1, 340 wild-type kinases (Homo sapiens, UniProt Q14680)
T1 construct: purchased Reaction Biology Europe

340 wild-type kinases [2] = target: T2, 340 wild-type kinases (Homo sapiens, UniProt Q99683)
T2 construct: purchased Reaction Biology Europe
T2 sequence (Q99683 1-1374): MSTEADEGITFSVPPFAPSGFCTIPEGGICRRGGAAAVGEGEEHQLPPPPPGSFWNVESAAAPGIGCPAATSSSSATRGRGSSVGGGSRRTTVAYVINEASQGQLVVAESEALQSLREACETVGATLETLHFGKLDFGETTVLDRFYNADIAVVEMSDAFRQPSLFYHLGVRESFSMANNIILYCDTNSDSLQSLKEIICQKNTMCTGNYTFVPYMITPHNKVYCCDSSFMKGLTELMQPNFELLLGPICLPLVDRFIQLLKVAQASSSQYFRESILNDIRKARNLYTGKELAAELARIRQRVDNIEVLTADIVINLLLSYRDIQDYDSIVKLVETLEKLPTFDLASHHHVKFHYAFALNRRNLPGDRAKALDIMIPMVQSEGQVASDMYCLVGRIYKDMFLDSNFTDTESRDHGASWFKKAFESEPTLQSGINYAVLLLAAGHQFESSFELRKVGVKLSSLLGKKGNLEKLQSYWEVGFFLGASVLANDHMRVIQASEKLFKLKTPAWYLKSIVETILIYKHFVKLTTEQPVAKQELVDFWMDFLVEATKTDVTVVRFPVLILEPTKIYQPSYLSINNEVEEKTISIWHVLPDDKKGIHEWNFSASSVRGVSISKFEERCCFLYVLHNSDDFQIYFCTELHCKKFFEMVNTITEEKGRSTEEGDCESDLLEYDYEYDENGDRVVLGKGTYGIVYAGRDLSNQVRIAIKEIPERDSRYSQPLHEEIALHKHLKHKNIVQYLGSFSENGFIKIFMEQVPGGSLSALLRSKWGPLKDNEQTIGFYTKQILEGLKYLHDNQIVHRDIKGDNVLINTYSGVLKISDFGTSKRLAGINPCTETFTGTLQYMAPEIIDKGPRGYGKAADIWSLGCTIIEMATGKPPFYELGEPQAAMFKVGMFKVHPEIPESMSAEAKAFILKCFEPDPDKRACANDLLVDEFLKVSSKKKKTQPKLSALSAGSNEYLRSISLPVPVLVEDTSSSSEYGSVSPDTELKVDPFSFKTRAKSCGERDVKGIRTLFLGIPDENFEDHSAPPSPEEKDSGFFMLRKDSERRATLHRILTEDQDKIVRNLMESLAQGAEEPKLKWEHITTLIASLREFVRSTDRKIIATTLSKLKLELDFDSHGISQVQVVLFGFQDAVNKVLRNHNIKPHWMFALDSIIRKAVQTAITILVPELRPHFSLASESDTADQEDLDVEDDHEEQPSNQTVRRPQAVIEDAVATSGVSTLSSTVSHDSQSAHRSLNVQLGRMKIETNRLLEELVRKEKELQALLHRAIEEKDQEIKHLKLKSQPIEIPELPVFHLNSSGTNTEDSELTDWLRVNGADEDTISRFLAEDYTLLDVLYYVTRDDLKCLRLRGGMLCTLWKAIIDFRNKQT

340 wild-type kinases [3] = target: T3, 340 wild-type kinases (Homo sapiens, UniProt P78362)
T3 construct: purchased Reaction Biology Europe
T3 sequence (P78362 whole entry): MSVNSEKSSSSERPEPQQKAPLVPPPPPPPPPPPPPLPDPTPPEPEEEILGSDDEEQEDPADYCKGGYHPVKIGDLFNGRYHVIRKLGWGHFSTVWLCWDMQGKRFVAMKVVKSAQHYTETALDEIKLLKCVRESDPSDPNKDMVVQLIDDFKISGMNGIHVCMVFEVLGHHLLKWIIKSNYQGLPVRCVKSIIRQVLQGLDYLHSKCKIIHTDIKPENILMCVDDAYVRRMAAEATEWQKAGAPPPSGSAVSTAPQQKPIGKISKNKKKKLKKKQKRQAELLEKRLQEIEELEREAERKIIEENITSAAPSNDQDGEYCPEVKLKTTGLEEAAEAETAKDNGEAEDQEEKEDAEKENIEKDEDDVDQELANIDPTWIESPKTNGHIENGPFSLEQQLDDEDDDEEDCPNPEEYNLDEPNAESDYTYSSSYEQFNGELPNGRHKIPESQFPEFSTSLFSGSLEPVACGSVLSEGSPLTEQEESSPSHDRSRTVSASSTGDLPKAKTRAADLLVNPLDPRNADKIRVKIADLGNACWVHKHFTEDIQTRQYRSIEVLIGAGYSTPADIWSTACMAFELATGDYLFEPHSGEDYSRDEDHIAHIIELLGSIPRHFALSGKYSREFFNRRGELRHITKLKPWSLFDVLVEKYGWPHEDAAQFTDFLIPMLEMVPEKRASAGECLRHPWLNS

340 wild-type kinases [4] = target: T4, 340 wild-type kinases (Homo sapiens, UniProt Q06418)
T4 construct: purchased Reaction Biology Europe
T4 sequence (Q06418 41-890): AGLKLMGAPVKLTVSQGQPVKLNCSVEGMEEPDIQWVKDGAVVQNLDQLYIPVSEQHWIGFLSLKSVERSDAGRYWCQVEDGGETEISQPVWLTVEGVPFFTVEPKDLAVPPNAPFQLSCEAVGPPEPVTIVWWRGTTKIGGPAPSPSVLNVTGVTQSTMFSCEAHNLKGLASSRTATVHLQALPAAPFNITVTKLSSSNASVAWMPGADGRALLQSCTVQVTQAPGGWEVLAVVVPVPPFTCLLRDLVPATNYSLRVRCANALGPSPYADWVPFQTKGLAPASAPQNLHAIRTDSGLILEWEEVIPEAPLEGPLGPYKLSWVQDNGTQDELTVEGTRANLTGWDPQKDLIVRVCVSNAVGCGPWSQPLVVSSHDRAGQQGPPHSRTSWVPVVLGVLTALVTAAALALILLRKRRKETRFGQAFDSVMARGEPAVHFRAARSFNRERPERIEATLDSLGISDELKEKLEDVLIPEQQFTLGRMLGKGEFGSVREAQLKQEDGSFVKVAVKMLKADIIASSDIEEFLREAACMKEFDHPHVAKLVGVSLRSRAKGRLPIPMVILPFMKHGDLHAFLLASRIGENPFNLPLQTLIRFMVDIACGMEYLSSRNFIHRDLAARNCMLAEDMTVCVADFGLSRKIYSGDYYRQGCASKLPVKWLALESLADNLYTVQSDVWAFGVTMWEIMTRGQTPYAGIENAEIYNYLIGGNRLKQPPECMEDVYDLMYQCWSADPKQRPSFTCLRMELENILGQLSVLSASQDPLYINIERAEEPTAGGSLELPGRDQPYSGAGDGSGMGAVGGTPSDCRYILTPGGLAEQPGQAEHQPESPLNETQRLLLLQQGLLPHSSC

340 wild-type kinases [5] = target: T5, 340 wild-type kinases (Homo sapiens, UniProt Q6IQ55)
T5 construct: purchased Reaction Biology Europe
T5 sequence (Q6IQ55 whole entry): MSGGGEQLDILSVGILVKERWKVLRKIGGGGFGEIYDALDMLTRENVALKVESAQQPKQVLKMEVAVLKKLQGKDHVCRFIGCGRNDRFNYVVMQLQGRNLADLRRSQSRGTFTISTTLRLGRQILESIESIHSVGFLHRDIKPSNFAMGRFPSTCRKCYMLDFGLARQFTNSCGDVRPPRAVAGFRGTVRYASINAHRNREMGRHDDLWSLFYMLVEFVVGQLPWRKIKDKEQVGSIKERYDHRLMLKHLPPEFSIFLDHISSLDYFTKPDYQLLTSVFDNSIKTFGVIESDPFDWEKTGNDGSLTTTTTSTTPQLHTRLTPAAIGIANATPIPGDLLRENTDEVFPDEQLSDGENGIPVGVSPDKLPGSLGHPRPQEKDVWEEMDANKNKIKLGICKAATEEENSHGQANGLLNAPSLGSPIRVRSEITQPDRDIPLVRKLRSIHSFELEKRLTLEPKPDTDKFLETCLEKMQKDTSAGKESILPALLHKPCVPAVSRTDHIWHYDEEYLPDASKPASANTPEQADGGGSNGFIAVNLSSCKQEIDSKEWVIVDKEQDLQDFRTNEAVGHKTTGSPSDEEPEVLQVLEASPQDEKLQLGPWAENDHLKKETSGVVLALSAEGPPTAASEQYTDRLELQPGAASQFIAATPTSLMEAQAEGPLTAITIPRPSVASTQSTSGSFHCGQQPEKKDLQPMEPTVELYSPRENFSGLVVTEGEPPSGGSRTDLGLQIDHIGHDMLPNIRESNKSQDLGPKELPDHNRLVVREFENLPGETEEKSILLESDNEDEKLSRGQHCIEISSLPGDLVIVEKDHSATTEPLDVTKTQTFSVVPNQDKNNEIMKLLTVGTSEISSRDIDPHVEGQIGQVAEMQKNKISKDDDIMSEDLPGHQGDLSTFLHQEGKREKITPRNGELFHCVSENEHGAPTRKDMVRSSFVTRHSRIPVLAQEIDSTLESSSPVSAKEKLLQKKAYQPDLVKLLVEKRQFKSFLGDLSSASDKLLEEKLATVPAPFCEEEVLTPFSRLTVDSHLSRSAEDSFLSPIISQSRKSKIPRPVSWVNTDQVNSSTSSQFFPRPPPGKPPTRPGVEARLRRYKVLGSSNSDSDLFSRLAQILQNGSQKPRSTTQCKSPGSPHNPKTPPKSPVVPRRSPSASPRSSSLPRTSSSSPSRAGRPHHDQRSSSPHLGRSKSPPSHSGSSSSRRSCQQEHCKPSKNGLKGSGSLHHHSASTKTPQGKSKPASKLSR

T1 sequence (Q14680 whole entry): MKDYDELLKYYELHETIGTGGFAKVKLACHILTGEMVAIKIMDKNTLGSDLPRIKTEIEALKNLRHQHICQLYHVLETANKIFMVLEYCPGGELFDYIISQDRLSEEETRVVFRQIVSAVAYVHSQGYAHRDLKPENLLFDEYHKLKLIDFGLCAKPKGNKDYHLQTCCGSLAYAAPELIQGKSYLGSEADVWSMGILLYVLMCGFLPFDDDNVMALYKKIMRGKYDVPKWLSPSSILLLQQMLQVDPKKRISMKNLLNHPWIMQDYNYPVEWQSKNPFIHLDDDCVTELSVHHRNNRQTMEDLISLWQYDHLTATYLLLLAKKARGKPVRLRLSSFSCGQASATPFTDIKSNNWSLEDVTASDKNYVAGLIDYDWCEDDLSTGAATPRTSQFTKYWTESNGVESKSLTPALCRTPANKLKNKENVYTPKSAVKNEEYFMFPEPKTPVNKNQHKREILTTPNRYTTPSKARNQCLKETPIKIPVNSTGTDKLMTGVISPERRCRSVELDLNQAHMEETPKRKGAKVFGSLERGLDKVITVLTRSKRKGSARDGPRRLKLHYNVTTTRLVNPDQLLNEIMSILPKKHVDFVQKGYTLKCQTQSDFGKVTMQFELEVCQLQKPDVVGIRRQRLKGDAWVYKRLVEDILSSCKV

Compound: CNC(=O)c1ccc2c(c1)C(=O)c1ccc(Nc3ccc(F)c(NC(=O)C4CC4)c3)cc1CC2 [Compound 2015]
- remaining activity at 0.2 µM (340 wild-type kinases [1]; 0.2 µM 2015, read-out: MELK residual activity): 94.5%
- remaining activity at 1 µM (340 wild-type kinases [1]; 1 µM 2015, read-out: MELK residual activity): 91%
- remaining activity at 0.2 µM (340 wild-type kinases [1]; MELK, 0.2 µM, read-out: residual activity): 94.5%
- remaining activity at 1 µM (340 wild-type kinases [1]; MELK, 1 µM, read-out: residual activity): 91%
- remaining activity at 0.2 µM (340 wild-type kinases [2]; 0.2 µM 2015, read-out: ASK1 residual activity): 95.5%
- remaining activity at 1 µM (340 wild-type kinases [2]; 1 µM 2015, read-out: ASK1 residual activity): 95%
- remaining activity at 0.2 µM (340 wild-type kinases [2]; ASK1, 0.2 µM, read-out: residual activity): 95.5%
- remaining activity at 1 µM (340 wild-type kinases [2]; ASK1, 1 µM, read-out: residual activity): 95%
- remaining activity at 0.2 µM (340 wild-type kinases [3]; 0.2 µM 2015, read-out: SRPK2 residual activity): 89.5%
- remaining activity at 1 µM (340 wild-type kinases [3]; 1 µM 2015, read-out: SRPK2 residual activity): 91.2%
- remaining activity at 0.2 µM (340 wild-type kinases [3]; SRPK2, 0.2 µM, read-out: residual activity): 89.5%
- remaining activity at 1 µM (340 wild-type kinases [3]; SRPK2, 1 µM, read-out: residual activity): 91.2%
- remaining activity at 0.2 µM (340 wild-type kinases [4]; 0.2 µM 2015, read-out: TYRO3 residual activity): 93.9%
- remaining activity at 1 µM (340 wild-type kinases [4]; 1 µM 2015, read-out: TYRO3 residual activity): 86.6%
- remaining activity at 0.2 µM (340 wild-type kinases [4]; TYRO3, 0.2 µM, read-out: residual activity): 94%
- remaining activity at 1 µM (340 wild-type kinases [4]; TYRO3, 1 µM, read-out: residual activity): 86.6%
- remaining activity at 0.2 µM (340 wild-type kinases [5]; 0.2 µM 2015, read-out: TTBK2 residual activity): 115%
- remaining activity at 1 µM (340 wild-type kinases [5]; 1 µM 2015, read-out: TTBK2 residual activity): 118%
- remaining activity at 0.2 µM (340 wild-type kinases [5]; TTBK2, 0.2 µM, read-out: residual activity): 115%
- remaining activity at 1 µM (340 wild-type kinases [5]; TTBK2, 1 µM, read-out: residual activity): 118%

— PMC11864979, “First-in-class ultralong-target-residence-time p38α inhibitors as a mitosis-targeted therapy for colorectal cancer” (Nature Cancer, 2025)
